Reference: patent US20230089867A1, “CYCLIC PENTAMER COMPOUNDS AS PROPROTEIN CONVERTASE SUBTILISIN/KEXIN TYPE 9 (PCSK9) INHIBITORS FOR THE TREATMENT OF METABOLIC DISORDER” (Novartis AG, priority 2018, published 2023)
Where two headings read alike, the source gives them in different places.

Biological target: human PCSK9 (Homo sapiens, UniProt Q8NBP7)
Assay: PCSK9 ligand binding TR-FRET assay (interference with binding of human PCSK9 to human LDLR)
Conditions: for Max % inhibition: PCSK9 FRET assay, efficacy (Amax), 100% = 1 uM unlabeled human PCSK9, 0% = DMSO
Procedure: The PCSK9 binding of the compounds of the disclosure were measured using a time resolved fluorescence resonance energy transfer (TR-FRET) assay. This time resolved fluorescence resonance energy transfer (TR-FRET) assay measures the ability of a compound of the present disclosure to interfere with the binding of human PCSK9 to human LDLR, providing measures of both potency (IC50) and efficacy (Amax).
These solutions were pipetted into columns 1 and 11 of the compound plate. Threefold serial dilutions were generated in columns 2-10 and 12-20 of the compound plate by transferring 10 uL into 20 uL of DMSO. Columns 21 and 22 of the compound plate were negative controls containing DMSO alone.
An intermediate plate was generated in a Greiner V bottom plate by transferring 8 uL from each well of the master plate into a corresponding well containing 92 uL of assay buffer and mixing thoroughly.
A Proxi plate-low volume assay plate was used for the assay. […] For the positive control wells in columns 23 and 24 of the plate, 5 uL of unlabeled human PCSK9 was added at 4 uM in assay buffer containing 8% DMSO. Following a 30 minute incubation, 5 uL of 4 nM Human LDLR extracellular domain-Europium Kryptate was added and the mixture was incubated for an additional 2 hours.
The FRET ratio (FRET/Europium) was used for calculations.
Data is expressed as percent inhibition: (value−0%)/(100%−0%).

[1] = TR-FRET, human PCSK9 Alexa Fluor 647 / human LDLR extracellular domain-Europium Kryptate, read-out: PCSK9 FRET Assay IC50

| IC50 [nM] | Max % inhibition [%] | IC50 [1] [nM] | Structure (SMILES) |
| --- | --- | --- | --- |
|  | 76.18 | 7.6 | COC[C@@H]1NC(=O)[C@H](CCN)N(Cc2ccc(Cl)cc2Oc2ccc(-c3cnc(CN(C)C)n3C)cc2)C(=O)C[C@@H](Cc2ccccc2)C(=O)N(C)[C@H]2CCCC[C@@H]2NC(=O)C[C@H](Cc2ccc(Cl)cc2)N(C)C1=O (single isomer, unassigned) [Compound 109] |
|  | 83.07 | 286 | COC[C@@H]1NC(=O)C(CCN)N(Cc2ccc(Cl)cc2Oc2ccc(-c3cnc(CN(C)C)n3C)cc2)C(=O)C[C@@H](Cc2ccccc2)C(=O)N(C)[C@H]2CCCC[C@@H]2NC(=O)C[C@H](Cc2ccc(Cl)cc2)N(C)C1=O (single isomer, unassigned) [Compound 204] |
|  | 48.77 | 331 | COC[C@@H]1NC(=O)[C@H](C)N(Cc2ccc(Oc3ccc(-c4cnc(CN(C)C)n4C)cc3)cc2F)C(=O)C[C@@H](Cc2ccccc2)C(=O)N(C)C2CCCCC2NC(=O)C[C@H](Cc2ccc(Cl)cc2)N(C)C1=O (stereo in doubt) [Compound 15, (4S,7S,10S,14R,16aS,20aS)-14-benzyl-4-(4-chlorobenzyl)-11-(4-(4-(2-((dimethylamino)methyl)-1-methyl-1H-imidazol-5-yl)phenoxy)-2-fluorobenzyl)-7-(methoxymethyl)-5,10,16-trimethylhexadecahydrobenzo[l][1,4,7,11,14]pentaazacyclooctadecine-2,6,9,12,15(3H)-pentaone] |
|  | 106.45 | 2 | COC[C@@H]1NC(=O)[C@H](CC(=O)N2CC3(COC3)C2)N(Cc2ccc(Cl)cc2Oc2ccc(-c3cnc(CN(C)C)n3C)cc2)C(=O)C[C@@H](Cc2ccccc2)C(=O)N(C)C2CCCCC2NC(=O)C[C@H](Cc2ccc(Cl)cc2)N(C)C1=O (stereo in doubt) [Compound 106, (4S,7S,10S,14R,16aS,20aS)-14-benzyl-11-(4-chloro-2-(4-(2-((dimethylamino)methyl)-1-methyl-1H-imidazol-5-yl)phenoxy)benzyl)-4-(4-chlorobenzyl)-7-(methoxymethyl)-5,16-dimethyl-10-(2-oxo-2-(2-oxa-6-azaspiro[3.3]heptan-6-yl)ethyl)hexadecahydrobenzo[l][1,4,7,11,14]pentaazacyclooctadecine-2,6,9,12,15(3H)-pentaone] |
|  | 95.16 | 172 | COC[C@@H]1NC(=O)[C@H](C)N(Cc2ccc(Cl)cc2Oc2ccc(-c3cnc(CN(C)C)n3C)cc2)C(=O)C[C@H](Cn2cccn2)C(=O)N(C)[C@H]2CCCC[C@@H]2NC(=O)C[C@H](Cc2ccc(Cl)cc2)N(C)C1=O [Compound 2, (4S,7S,10S,14R,16aS,20aS)-14-((1H-pyrazol-1-yl)methyl)-11-(4-chloro-2-(4-(2-((dimethylamino)methyl)-1-methyl-1H-imidazol-5-yl)phenoxy)benzyl)-4-(4-chlorobenzyl)-7-(methoxymethyl)-5,10,16-trimethylhexadecahydrobenzo[l][1,4,7,11,14]pentaazacyclooctadecine-2,6,9,12,15(3H)-pentaone] |
|  | 95.68 | 1.3 | CNCC[C@H]1C(=O)N[C@@H](COC)C(=O)N(C)[C@@H](Cc2ccc(Cl)cc2)CC(=O)N[C@H]2CCCC[C@@H]2N(C)C(=O)[C@H](Cc2ccccc2)CC(=O)N1Cc1ccc(Cl)cc1Oc1ccc(-c2cnc(CN(C)C)n2C)cc1 [Compound 3, (4S,7S,10S,14R,16aS,20aS)-14-benzyl-11-(4-chloro-2-(4-(2-((dimethylamino)methyl)-1-methyl-1H-imidazol-5-yl)phenoxy)benzyl)-4-(4-chlorobenzyl)-7-(methoxymethyl)-5,16-dimethyl-10-(2-(methylamino)ethyl)hexadecahydrobenzo[l][1,4,7,11,14]pentaazacyclooctadecine-2,6,9,12,15(3H)-pentaone] |
|  | 83.48 | 9.6 | COC[C@@H]1NC(=O)[C@H](C)N(Cc2ccc(Cl)cc2Oc2ccc(-c3cnc(CN(C)C)n3C)cc2)C(=O)C[C@@H](C)C(=O)N(C)[C@@H](CC2CC2)CNC(=O)C[C@H](Cc2ccc(Cl)cc2)N(C)C1=O [Compound 5, (2S,5S,8S,13S,16R)-1-(4-chloro-2-(4-(2-((dimethylamino)methyl)-1-methyl-1H-imidazol-5-yl)phenoxy)benzyl)-8-(4-chlorobenzyl)-13-(cyclopropylmethyl)-5-(methoxymethyl)-2,7,14,16-tetramethyl-1,4,7,11,14-pentaazacyclooctadecane-3,6,10,15,18-pentaone] |
|  | 93.00 | 9.9 | COC[C@@H]1NC(=O)[C@H](C)N(Cc2c(OCC(F)(F)F)cc(Cl)cc2Oc2ccc(-c3cnc(CN4CCCC4)n3C)cc2)C(=O)C[C@@H](C)C(=O)N(C)[C@@H](C)CNC(=O)C[C@H](Cc2ccc(Cl)cc2)N(C)C1=O [Compound 7, (2S,5S,8S,13S,16R)-1-(4-chloro-2-(4-(1-methyl-2-(pyrrolidin-1-ylmethyl)-1H-imidazol-5-yl)phenoxy)-6-(2,2,2-trifluoroethoxy)benzyl)-8-(4-chlorobenzyl)-5-(methoxymethyl)-2,7,13,14,16-pentamethyl-1,4,7,11,14-pentaazacyclooctadecane-3,6,10,15,18-pentaone] |

Second part, the compound before the results:

| Structure (SMILES) | IC50 [nM] | Max % inhibition [%] | IC50 [1] [nM] |
| --- | --- | --- | --- |
| COC[C@@H]1NC(=O)[C@H](C)N(Cc2ccc(Cl)cc2Oc2ccc(-c3cncc(C4CCC(NCCF)CC4)c3)cc2)C(=O)C[C@@H](Cc2ccccc2)C(=O)N(C)[C@@H](C)CNC(=O)C[C@H](Cc2ccc(Cl)cc2)N(C)C1=O (stereo partly drawn) | 2.7 |  |  |
| COC[C@@H]1NC(=O)[C@H](C)N(Cc2ccc(Cl)cc2Oc2ccc(-c3cncc(C4CCN(CCF)CC4)c3)cc2)C(=O)C[C@@H](Cc2ccccc2)C(=O)N(C)[C@@H](C)CNC(=O)C[C@H](Cc2ccc(Cl)cc2)N(C)C1=O | 3.2 |  |  |
| COC[C@@H]1NC(=O)C(C)N(Cc2ccc(Cl)cc2Oc2ccc(-c3cnc(CN(C)C)n3C)cc2)C(=O)C[C@@H](Cc2ccccc2)C(=O)N(C)[C@H]2CCCC[C@@H]2NC(=O)C[C@H](Cc2ccc(Cl)cc2)N(C)C1=O (single isomer, unassigned) [Compound 58] |  | 103.43 | 9.3 |
| COC[C@@H]1NC(=O)[C@H](C)N(Cc2ccc(Cl)cc2Oc2ccc(-c3cnc(CN4CCCC4)n3C)cc2)C(=O)C[C@@H](Cc2ccccc2)C(=O)N(C)C2CCOCC2NC(=O)C[C@H](Cc2ccc(Cl)cc2)N(C)C1=O (single isomer, unassigned) [Compound 274] |  | 93.20 | 1.4 |
| COC[C@@H]1NC(=O)[C@H](CC(=O)N2CC(C)(O)C2)N(Cc2ccc(Cl)cc2Oc2ccc(-c3cnc(CN(C)C)n3C)cc2)C(=O)C[C@@H](Cc2ccccc2)C(=O)N(C)C2CCCCC2NC(=O)C[C@H](Cc2ccc(Cl)cc2)N(C)C1=O (stereo in doubt) [Compound 52, (4S,7S,10S,14R,16aS,20aS)-14-benzyl-11-(4-chloro-2-(4-(2-((dimethylamino)methyl)-1-methyl-1H-imidazol-5-yl)phenoxy)benzyl)-4-(4-chlorobenzyl)-10-(2-(3-hydroxy-3-methylazetidin-1-yl)-2-oxoethyl)-7-(methoxymethyl)-5,16-dimethylhexadecahydrobenzo[l][1,4,7,11,14]pentaazacyclooctadecine-2,6,9,12,15(3H)-pentaone] |  | 104.32 | 1.5 |
| COC[C@@H]1NC(=O)[C@H](C)N(Cc2ccc(Cl)cc2Oc2ccc(-c3cnc(C(C)N4CCCC4)n3C)cc2)C(=O)C[C@@H](C)C(=O)N(C)[C@@H](C)CNC(=O)C[C@H](Cc2ccc(Cl)cc2)N(C)C1=O (stereo in doubt) [Compound 103, (2S,5S,8S,13S,16R)-1-(4-chloro-2-(4-(1-methyl-2-((S)-1-(pyrrolidin-1-yl)ethyl)-1H-imidazol-5-yl)phenoxy)benzyl)-8-(4-chlorobenzyl)-5-(methoxymethyl)-2,7,13,14,16-pentamethyl-1,4,7,11,14-pentaazacyclooctadecane-3,6,10,15,18-pentaone] |  | 106.00 | 10.1 |
| C[C@H]1CNC(=O)C[C@H](Cc2ccc(Cl)cc2)N(C)C(=O)[C@H](CO)NC(=O)[C@H](C)N(Cc2ccccc2OCC(=O)N2Cc3cccnc3C2)C(=O)C[C@@H](Cc2ccccc2)C(=O)N1C (stereo in doubt) [Compound 143, (2S,5S,8S,13S,16R)-16-benzyl-8-(4-chlorobenzyl)-5-(hydroxymethyl)-2,7,13,14-tetramethyl-1-(2-(2-oxo-2-(5H-pyrrolo[3,4-b]pyridin-6(7H)-yl)ethoxy)benzyl)-1,4,7,11,14-pentaazacyclooctadecane-3,6,10,15,18-pentaone] |  | 49.36 | 774 |
| COC[C@@H]1NC(=O)[C@H](CCCNC(=O)OC(C)(C)C)N(Cc2ccc(Cl)cc2Oc2ccc(-c3cnc(CN(C)C)n3C)cc2)C(=O)C[C@@H](Cc2ccccc2)C(=O)N(C)[C@@H](C)CNC(=O)C[C@H](Cc2ccc(Cl)cc2)N(C)C1=O [Compound 4, tert-butyl (3-((2S,5S,8S,13S,16R)-16-benzyl-1-(4-chloro-2-(4-(2-((dimethylamino)methyl)-1-methyl-1H-imidazol-5-yl)phenoxy)benzyl)-8-(4-chlorobenzyl)-5-(methoxymethyl)-7,13,14-trimethyl-3,6,10,15,18-pentaoxo-1,4,7,11,14-pentaazacyclooctadecan-2-yl)propyl)carbamate] |  | 97.50 | 2.9 |
